Measured values as given in patent US11981944B2, “Immunogenic arginase peptides” (IO Biotech ApS, priority 2016, dated 2024).

System: peripheral blood mononuclear cells (PBMC)
Assay: IFN-gamma ELISPOT secretion assay on PBMC (Example 1)
Assay type: cell-based, human
Details: IFN-gamma ELISPOT; PBMC from six melanoma patients; FIG. 1

Row | Sequence | specific T-cell responses against Arg-derived peptide
1 | DIMEVNPSL (Peptide fragment of human Arginase 1) [Arg10, positions 274-282 of human Arginase 1] | Strong responses
2 | GLLSGLDIM (Peptide fragment of human Arginase 1) [Arg9, positions 268-276 of human Arginase 1] | Strong responses
3 | HLSFDVDGL (Peptide fragment of human Arginase 1) [Arg6, positions 228-236 of human Arginase 1] | Strong responses
4 | LLKELKGKI [Arg3] | Strong responses
5 | LLSGLDIMEV (Peptide fragment of human Arginase 1) [Arg11, positions 269-278 of human Arginase 1] | Strong responses
6 | LVLGGDHSL (Peptide fragment of human Arginase 1) [Arg2, positions 95-103 of human Arginase 1] | Strong responses
7 | SLGKTPEEV (Peptide fragment of human Arginase 1) [Arg7, positions 281-289 of human Arginase 1] | Strong responses
8 | VLGGDHSLAI (Peptide fragment of human Arginase 1) [Arg15, positions 96-105 of human Arginase 1] | Strong responses
9 | VMEETLSYL (Peptide fragment of human Arginase 1) [Arg5, positions 211-219 of human Arginase 1] | Strong responses
10 | YLLGRKKRPI (Peptide fragment of human Arginase 1) [Arg14, positions 218-227 of human Arginase 1] | Strong responses

Same assay, conditions: PBMC from three cancer patients; FIG. 3

Row | Sequence | immune responses against overlapping 20mer peptides
11 | DSPFQIVKNPRSVGKASEQL (Peptide fragment of human Arginase 1) [Arg1-7, positions 61-80 of human Arginase 1] | Frequent immune responses were detected
12 | ELKGKIPDVPGFSWVTPCIS (Peptide fragment of human Arginase 1) [Arg1-16, positions 151-170 of human Arginase 1] | Frequent immune responses were detected
13 | GDLPFADIPNDSPFQIVKNP (Peptide fragment of human Arginase 1) [Arg1-6, positions 51-70 of human Arginase 1] | Frequent immune responses were detected
14 | HGQPVSFLLKELKGKIPDVP (Peptide fragment of human Arginase 1) [Arg1-15, positions 141-160 of human Arginase 1] | Frequent immune responses were detected
15 | MSAKSRTIGIIGAPFSKGQP (Peptide fragment of human Arginase 1) [Arg1-1, positions 1-20 of human Arginase 1] | Frequent immune responses were detected
16 | SLGKTPEEVTRTVNTAVAIT (Peptide fragment of human Arginase 1) [Arg1-29, positions 281-300 of human Arginase 1] | Frequent immune responses were detected
17 | TPLTTTSGNLHGQPVSFLLK (Peptide fragment of human Arginase 1) [Arg1-14, positions 131-150 of human Arginase 1] | Frequent immune responses were detected
18 | VMEETLSYLLGRKKRPIHLS (Peptide fragment of human Arginase 1) [Arg1-22, positions 211-230 of human Arginase 1] | Frequent immune responses were detected
